{"source": "patent US4999374A", "about": "“Veterinary treatment” (priority 1987, dated 1991)", "key": {"T. hyodysenteriae [1]": {"system": "T. hyodysenteriae", "assay": "Comparative efficacy of M139603 and salinomycin in experimentally infected mice (Example 3, Table 3)", "assay_type": "in vivo, mice (strain MF-1)", "settings": "30 ppm feed", "text": "(§1) The infection leads to varying degrees of caecitis, the lesions of which are apparent in animals killed on or about the sixth day post-infection. Caecal specimens examined by bacteriological culture techniques applicable for enumeration of organisms reveal the presence of high populations of T.hyodysenteriae. This disease-model was used in experiments to compare the efficacy of M139603 with that of salinomycin, lasalocid and monensin in suppressing the infection.\n(§2) In this study, the efficacy of M139603 was tested at 25 ppm feed and that of monensin (Eli Lilly) at 50 or 100 ppm. Groups of infected mice, five per group, were offered the drugs in the feed on five continuous days before killing. Caecal materials were subjected to bacteriological examination to enumerate the populations of viable treponemes per gram of material. […] The group mean in respect of the unmedicated groups was 7.9 cfu/g.\nIn this study, the efficacy of M139603 was tested at 30 ppm and that of salinomycin at 30, 40 or 60 ppm feed. The mouse-groups and test-procedureswere simi-ar to those applied under Example 2 above."}, "T. hyodysenteriae [2]": {"system": "T. hyodysenteriae", "assay": "Comparative efficacy of M139603 and lasalocid in experimentally infected mice (Example 4, Table 4)", "assay_type": "in vivo, mice (strain MF-1)", "settings": "20 ppm feed", "text": "as §1, §2\nIn this study, the efficacy of M139603 was tested at 20 ppm feed and that of lasalocid (Hoffman la Roche) at 20, 40 and 80 ppm. The test procedures were similar to those above except for the size of the inoculum of T.hyodysenteriae (1.2×10^7 cfu) used in infecting each mouse. […] The mean (log10) counts of viable treponemes found in the caecal contents of the various groups were: 2.5 cfu/g caecum (139603 at 20 ppm), 7.35 cfu (lasalocid at 20 ppm), 7.45 cfu (lasalocid at 40 ppm), 3.81 cfu (lasalocid at 80 ppm) and 8.50 cfu (unmedicated control)."}, "[3]": {"system": "T. hyodysenteriae strain \"P18a\"", "assay": "Agar-dilution M.I.C. test of M139603 and analogues (Example 8, Table 8)", "assay_type": "cell-based, Treponema hyodysenteriae", "settings": "Brachyspira hyodysenteriae, Isosensitest agar with 5% sheep-blood, anaerobic, 39° C., 48-72 hours", "experimental": "T. hyodysenteriae strain \"P18a\" was used in both in vitro and in vivo tests as above.\nMinimum inhibitory concentration test: An agar-dilution M.I.C. test procedure was applied in the study. The susceptibility of the bacterial strain was tested against a range of dilutions (0.3 mg; 0.1 mg; 0.03 mg; 0.01 mg and 0.003 mg/l medium) of each compound incorporated in plates of Isosensitest agar (Oxoid CM471) with 5% added sheep-blood. The plates, `spot-inoculated` (Steer's type multipoint inoculator) with a standard culture-suspension of the test strain, were incubated anaerobically at 39° C. for 48-72 hours before reading the results. The M.I.C. of each compound was read as the lowest concentration yielding no growth (no haemolysis) or a hazy growth (faint haemolysis) on the site of the spot-inoculation."}}, "note": "Values joined by “and” are separate entries in the source; they are usually repeats but may differ in a detail not shown here. Equal values may be shown once.", "data": [{"smiles": "CO[C@@H](C)[C@H]1C[C@H](C)[C@H]([C@@H](C)/C=C/[C@@H]2CC[C@@H](C)[C@H](/C(=C/[C@H]3CCC[C@@H](C)[C@@H]3[C@H](C)C(=O)C3=C(O)COC3=O)CO)O2)O1", "note": "[Analogue M139603, tetronasin]", "values": [{"measurement": "Suppression of infection", "setting": "T. hyodysenteriae [1]", "result": "suppressed the infection"}, {"measurement": "Mean (log10) viable treponemes per gram caecum & contents", "setting": "T. hyodysenteriae [1]; 5 days, group mean", "result": 0, "unit": "log10 per gram"}, {"measurement": "Viable treponemes per gram caecum & contents", "setting": "T. hyodysenteriae [1]; 5 days, individual mice", "result": "negative"}, {"measurement": "Complete suppression of infection", "setting": "T. hyodysenteriae [2]", "result": "completely suppressed the infection in two mice"}, {"measurement": "Efficacy compared with lasalocid at 80 ppm", "setting": "T. hyodysenteriae [2]", "result": "greater than that of lasalocid at 80 ppm"}, {"measurement": "Mean (log10) viable treponemes per gram caecal contents", "setting": "T. hyodysenteriae [2]; 5 days, group mean (table)", "result": 1.62, "unit": "log10 per gram"}, {"measurement": "Viable treponemes per gram caecal contents", "setting": "T. hyodysenteriae [2]; 5 days, individual mice", "result": "0 per gram and 4.3 × 10^3 per gram and 3.0 × 10^2 per gram and 1.0 × 10^2 per gram"}, {"measurement": "Mean (log10) count of viable treponemes in caecal contents", "setting": "T. hyodysenteriae [2]; log10", "result": 2.5, "unit": "cfu/g caecum"}, {"measurement": "Reduction of T. hyodysenteriae populations", "setting": "T. hyodysenteriae [2]; other three mice", "result": "markedly reduced"}, {"measurement": "MIC", "setting": "[3]", "result": 0.01, "unit": "µg/mL"}]}]}
